pIC50: −log10 of the molar value.
Experiments:
human α2C receptor = human α2C receptor (Homo sapiens (Human), UniProt P18825); test: Antagonism against adrenoreceptor α2C (luminescence, recombinant CHO cell line, noradrenaline stimulation); format: cell-based; details: 20 nM noradrenaline
Experimental: B-1a) Antagonism Against Adrenoreceptors
Antagonism against the adrenoreceptor α1A was tested using a recombinant human α1A receptor CHO cell line which additionally also recombinantly expresses mtAeq (mitochondrial aequorin). Antagonism against the adrenoreceptor α2A was tested using a recombinant human α2A-Gα16 receptor fusion protein CHO cell line (PerkinElmer Life Sciences) which additionally also recombinantly expresses mtAeq. Antagonism against the adrenoreceptor α2B was tested using a recombinant human α2B receptor CHO cell line (PerkinElmer Life Sciences) which additionally also recombinantly expresses mtAeq. Antagonism against the adrenoreceptor α2C was tested using a recombinant human α2C receptor CHO cell line which additionally also recombinantly expresses a chimaric G protein (Gαqi3) and mtOb (mitochondrial obelin).
The cells were cultivated at 37° C. and 5% CO2 in Dulbecco's modified Eagle's Medium/NUT mix F12 with L-glutamine which additionally contains 10% (v/v) inactivated foetal calf serum, 1 mM sodium pyruvate, 0.9 mM sodium bicarbonate, 50 U/ml penicillin, 50 μg/ml streptomycin, 2.5 μg/ml amphotericin B and 1 mg/ml Geneticin. The cells were passaged with enzyme-free Hank's-based cell dissociation buffer. All cell culture reagents used were from Invitrogen (Carlsbad, USA).
Luminescence measurements were carried out on white 384-well microtitre plates. 2000 cells/well were plated in a volume of 25 μl and cultivated for one day at 30° C. and 5% CO2 in cell culture medium with coelenterazine (α2A and α2B: 5 μg/ml; α1a/c and α2C: 2.5 μg/ml). Serial dilutions of the test substances (10 μl) were added to the cells. After 5 minutes, noradrenaline was added to the cells (35 μl; final concentrations: 20 nM (α1a/c, and α2C) or 200 nM (α2A and α2B)), and the emitted light was measured for 50 seconds using a CCD (charge-coupled device) camera (Hamamatsu Corporation, Shizuoka, Japan) in a light-tight box. The test substances were tested up to a maximum concentration of […] The IC50 values were calculated from the appropriate dose-response curves.

[1] = tested on: diabetic (ZDFfa/fa) and healthy rats (Wistar); test: Assay of perfusion-enhancing substances (microcirculation), laser doppler probe at the paw; format: in vivo, rat; details: single oral dose; for MED skin temperature: minimum effective dose for significant increase of skin temperature (ttest); for MED microcirculation: minimum effective dose with significantly improved microcirculation vs placebo; for MED microcirculation / factor by which microcirculation is improved at MED compared to placebo: 30 min after administration; for factor by which microcirculation is improved at MED compared to placebo: at the MED
Description: B-2e) Assay of Perfusion-Enhancing Substances (Microcirculation)
In diabetic (ZDFfa/fa) and healthy rats (Wistar), a laser doppler probe was fastened under anaesthesia conditions (isoflurane anaesthesia) at the sole of the paw for measuring cutaneous microcirculation. The test animals were once treated orally with the test substances. During the experiment, microperfusion and temperature of the lower extremities were documented continuously. Here, a temperature-sensitive laser doppler probe (Periflux, O2C) was fastened with adhesive to the paws of the animals, allowing the measurement of microperfusion and skin temperature. The microcirculation measurement values were measured on both paws 30 min after oral administration of the test substance. […] Also stated is the MED for the significant increase of skin temperature (ttest).
Microcirculation data for adrenoreceptor α2c antagonist of Example 8 and for the comparative substance ORM12741, an AR α2c antagonist from Orion, are shown in Table 2: […]

[2] = tested on: conscious female Wistar rats; test: Radiotelemetric measurement of blood pressure and heart rate of conscious rats; format: in vivo, rat
Description: B-2l) Radiotelemetric Measurement of Blood Pressure and Heart Rate of Conscious Rats
A commercially available telemetry system from Data Sciences International DSI, USA, was employed for the measurements on conscious rats described below. The system consists of 3 main components: (1) implantable transmitters (Physiotel® telemetry transmitter), (2) receivers (Physiotel® receiver), which are linked via a multiplexer (DSI Data Exchange Matrix) to a (3) data acquisition computer. The telemetry system makes it possible to continuously record blood pressure, heart rate and body motion of conscious animals in their usual habitat.
The studies were conducted on adult female Wistar rats with a body weight of >200 g. After transmitter implantation, the experimental animals were housed singly in type III Makrolon® cages. They had free access to standard feed and water. The day/night rhythm in the test laboratory was set by changing the illumination of the room.
The telemetry transmitters used (PA-C40, DSI) were surgically implanted under aseptic conditions in the experimental animals at least 14 days before the first experimental use. […]
Each of the instrumented rats living in the system was assigned a separate receiving antenna (RPC-1 Receiver, DSI). […] The signals emitted were detected online by a data acquisition system (Dataquest™ A.R.T. for Windows, DSI) and processed accordingly.
In the standard procedure, the following were measured for 10-second periods in each case: (1) systolic blood pressure (SBP), (2) diastolic blood pressure (DBP), (3) mean arterial pressure (MAP) and (4) heart rate (HR) and (5) activity (ACT). These parameters were measured over 24 hours after administration.
The acquisition of measurements was repeated under computer control at 5-minute intervals. The source data obtained as absolute values were corrected in the diagram with the currently measured barometric pressure (Ambient Pressure Reference Monitor, APR-1, DSI). […]

Chain of human α2C receptor (P18825 whole entry): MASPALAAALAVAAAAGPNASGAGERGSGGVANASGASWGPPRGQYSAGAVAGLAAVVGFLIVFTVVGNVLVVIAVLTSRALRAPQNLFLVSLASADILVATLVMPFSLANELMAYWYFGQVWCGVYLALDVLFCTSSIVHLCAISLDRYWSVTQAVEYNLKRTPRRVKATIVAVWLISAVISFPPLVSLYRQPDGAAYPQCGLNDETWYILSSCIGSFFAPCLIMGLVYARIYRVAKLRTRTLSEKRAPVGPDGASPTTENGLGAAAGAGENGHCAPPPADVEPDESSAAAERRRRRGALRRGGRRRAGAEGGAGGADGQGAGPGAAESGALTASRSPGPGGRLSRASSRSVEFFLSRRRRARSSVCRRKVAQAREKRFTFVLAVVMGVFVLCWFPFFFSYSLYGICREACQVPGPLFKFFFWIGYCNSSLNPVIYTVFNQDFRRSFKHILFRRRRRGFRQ

Structure (SMILES): CC1CN(c2ccc(C(=O)N3CCC(N4CCc5ccccc5C4)CC3)cn2)CC(C)O1 (centres unmarked) [Example 12, [4-(3,4-Dihydroisoquinolin-2(1H)-yl)piperidin-1-yl][6-(2,6-dimethylmorpholin-4-yl)pyridin-3-yl]methanone]
- pIC50 (human α2C receptor): 7.68

Structure (SMILES): O=C(c1ccc(N2CC3(C2)CS(=O)(=O)C3)nc1)N1CCC(N2CCc3ccccc3C2)CC1 [Example 15, [4-(3,4-Dihydroisoquinolin-2(1H)-yl)piperidin-1-yl][6-(2,2-dioxido-2-thia-6-azaspiro[3.3]hept-6-yl)pyridin-3-yl]methanone]
- pIC50 (human α2C receptor): 7.28

Structure (SMILES): COC[C@@]1(C)CCCN2CCc3c(oc4ccccc34)[C@@H]21 [ORM-12741, reference compound]
- MED skin temperature [1]: 0.01 mg/kg
- MED microcirculation [1]: 0.1 mg/kg
- factor by which microcirculation is improved at MED compared to placebo [1]: 1.9 ×
- blood pressure ([2]; 10 mg/kg, oral): additional reduction in blood pressure

Structure (SMILES): CC1CN(c2ccc(C(=O)N3CCC(N4CCc5ccccc5C4)CC3)cn2)CC(C)O1 (centres unmarked) [Example 11, [4-(3,4-Dihydroisoquinolin-2(1H)-yl)piperidin-1-yl][6-(2,6-dimethylmorpholin-4-yl)pyridin-3-yl]methanone]
- pIC50 (human α2C receptor): 7.96

Structure (SMILES): CC1(C)CN(c2ccc(C(=O)N3CCC(N4CCc5ccccc5C4)CC3)cn2)CCO1 [Example 13, [4-(3,4-Dihydroisoquinolin-2(1H)-yl)piperidin-1-yl][6-(2,2-dimethylmorpholin-4-yl)pyridin-3-yl]methanone]
- pIC50 (human α2C receptor): 7.28

Structure (SMILES): O=C(O)[C@H]1CCCN1c1ccc(C(=O)N2CCC(N3CCc4ccccc4C3)CC2)cn1 [Example 6, 1-(5-{[4-(3,4-Dihydroisoquinolin-2(1H)-yl)piperidin-1-yl]carbonyl}pyridin-2-yl)-D-proline]
- MED skin temperature [1]: no effect
- MED microcirculation [1]: no effect
- factor by which microcirculation is improved at MED compared to placebo [1]: ≤ 1.3 ×
- pIC50 (human α2C receptor): 7.57

Structure (SMILES): O=C(c1ccc(N2CCOC(C(F)(F)F)C2)nc1)N1CCC(N2CCc3ccccc3C2)CC1 (centres unmarked) [Example 14, [4-(3,4-Dihydroisoquinolin-2(1H)-yl)piperidin-1-yl]{6-[2-(trifluoromethyl)morpholin-4-yl]pyridin-3-yl}methanone]
- pIC50 (human α2C receptor): 7.64

Structure (SMILES): CC[C@@H](CO)Nc1ccc(C(=O)N2CCC(N3CCc4ccccc4C3)CC2)cn1 [Example 7, [4-(3,4-Dihydroisoquinolin-2(1H)-yl)piperidin-1-yl](6-{[(2S)-1-hydroxybutan-2-yl]amino}pyridin-3-yl)methanone]
- pIC50 (human α2C receptor): 7.68

Structure (SMILES): COCCNc1ccc(C(=O)N2CCC(N3CCc4ccccc4C3)CC2)cn1 [Example 1, [4-(3,4-Dihydroisoquinolin-2-(1H)-yl)piperidin-1-yl]{6-[(2-methoxyethyl)amino]pyridin-3-yl}-methanone]
- MED skin temperature [1]: 1 mg/kg
- MED microcirculation [1]: 1 mg/kg
- factor by which microcirculation is improved at MED compared to placebo [1]: 1.8 ×
- pIC50 (human α2C receptor): 7.66

Structure (SMILES): COC1CCN(c2ccc(C(=O)N3CCC(N4CCc5cc(F)ccc5C4)CC3)cn2)C1 (centres unmarked) [Example 8, [4-(6-Fluoro-3,4-dihydroisoquinolin-2(1H)-yl)piperidin-1-yl][6-(3-methoxypyrrolidin-1-yl)pyridin-3-yl]methanone]
- pIC50 (human α2C receptor): 7.24

Structure (SMILES): O=C(c1ccc(N2CCS(=O)(=O)CC2)nc1)N1CCC(N2CCc3ccccc3C2)CC1 [Example 4, [4-(3,4-Dihydroisoquinolin-2(1H)-yl)piperidin-1-yl][6-(1,1-dioxidothiomorpholin-4-yl)pyridin-3-yl]methanone]
- MED skin temperature [1]: 0.1 mg/kg
- MED microcirculation [1]: 0.1 mg/kg
- factor by which microcirculation is improved at MED compared to placebo [1]: 2.4 ×
- pIC50 (human α2C receptor): 7.62
- haemodynamic effects (blood pressure, heart rate) ([2]; conscious rats, oral administration, 24 hours telemetry): no haemodynamic effects
- heart rate ([2]; oral dose of 3 and 10 mg/kg): slight transient increase in the heart rate

Structure (SMILES): O=C(c1ccc(N2CCOCC2)nc1)N1CCC(N2CCc3ccccc3C2)CC1 [Example 3, [4-(3,4-Dihydroisoquinolin-2(1H)-yl)piperidin-1-yl][6-(morpholin-4-yl)pyridin-3-yl]methanone]
- pIC50 (human α2C receptor): 8.05

Structure (SMILES): O=C(c1ccc(N2CC3(COC3)C2)nc1)N1CCC(N2CCc3ccccc3C2)CC1 [Example 10, [4-(3,4-Dihydroisoquinolin-2(1H)-yl)piperidin-1-yl][6-(2-oxa-6-azaspiro[3.3]hept-6-yl)pyridin-3-yl]methanone]
- MED skin temperature [1]: 0.03 mg/kg
- MED microcirculation [1]: 0.03 mg/kg
- factor by which microcirculation is improved at MED compared to placebo [1]: 2.1 ×

Structure (SMILES): COc1ccc2c(c1)CCN(C1CCN(C(=O)c3ccc(N4CCC(OC)C4)nc3)CC1)C2 (centres unmarked) [Example 9, [4-(6-Methoxy-3,4-dihydroisoquinolin-2(1H)-yl)piperidin-1-yl][6-(3-methoxypyrrolidin-1-yl)pyridin-3-yl]methanone]
- pIC50 (human α2C receptor): 7.96

Structure (SMILES): COC[C@H]1CCCN1c1ccc(C(=O)N2CCC(N3CCc4ccccc4C3)CC2)cn1 [Example 5, [4-(3,4-Dihydroisoquinolin-2(1H)-yl)piperidin-1-yl]{6-[(2R)-2-(methoxymethyl)pyrrolidin-1-yl]pyridin-3-yl}methanone]
- pIC50 (human α2C receptor): 7.19

Structure (SMILES): COCCNc1ccc(C(=O)N2CCC(N3CCc4ccc(F)cc4C3)CC2)cn1 [Example 2, [4-(7-Fluoro-3,4-dihydroisoquinolin-2(1H)-yl)piperidin-1-yl]{6-[(2-methoxyethyl)amino]pyridin-3-yl}methanone]
- pIC50 (human α2C receptor): 7.89
